Experiment [1] addresses Serine/threonine-protein kinase NIM1 (Homo sapiens, UniProt Q8IY84). Nature of the experiment: Selectivity interaction (Ambit KINOMEscan and KiNATiv profiling in Jurkat cells) EUB0000090b NIM1K. The following applies: at 1 µM. It is filed as cell-based.
For experiment [2], the target named is T1, Serine/threonine-protein kinase BRSK2 (Homo sapiens) (UniProt Q8IWQ3).
T1 sequence (whole entry): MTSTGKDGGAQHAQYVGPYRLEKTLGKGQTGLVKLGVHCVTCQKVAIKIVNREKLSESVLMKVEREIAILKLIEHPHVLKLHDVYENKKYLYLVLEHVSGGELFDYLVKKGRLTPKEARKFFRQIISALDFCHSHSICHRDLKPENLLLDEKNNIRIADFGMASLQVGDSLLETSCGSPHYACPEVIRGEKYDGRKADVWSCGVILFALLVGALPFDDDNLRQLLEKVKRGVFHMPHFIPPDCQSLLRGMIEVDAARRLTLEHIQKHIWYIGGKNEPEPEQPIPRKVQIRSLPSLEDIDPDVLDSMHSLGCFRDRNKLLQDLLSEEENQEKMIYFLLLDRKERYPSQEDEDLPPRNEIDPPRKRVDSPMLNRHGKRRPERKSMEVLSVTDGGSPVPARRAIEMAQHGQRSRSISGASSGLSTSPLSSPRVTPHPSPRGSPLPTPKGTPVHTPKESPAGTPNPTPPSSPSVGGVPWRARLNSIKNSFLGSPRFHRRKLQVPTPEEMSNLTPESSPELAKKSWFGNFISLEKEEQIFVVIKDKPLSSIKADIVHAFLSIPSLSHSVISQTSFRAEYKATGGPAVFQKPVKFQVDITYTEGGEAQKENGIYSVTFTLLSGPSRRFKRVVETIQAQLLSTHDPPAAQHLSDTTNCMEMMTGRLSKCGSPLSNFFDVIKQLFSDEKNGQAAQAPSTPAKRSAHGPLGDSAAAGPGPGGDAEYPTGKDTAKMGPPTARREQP
The settings on record: at 10 µM.

Experiment [3] has as its target Mitogen-activated protein kinase kinase kinase kinase 4 (Homo sapiens, UniProt O95819). The following applies: at 10 µM.
For experiment [4], the target named is Casein kinase I isoform delta (Homo sapiens, UniProt P48730). Nature of the experiment: Selectivity interaction (KinomeScan (DiscoverX)) EUB0000666a CSNK1D. The following applies: at 10 µM.
The target in experiment [5] is Atypical kinase COQ8A, mitochondrial (Homo sapiens, UniProt Q8NI60). Nature of the experiment: Selectivity interaction (Competition-binding assay (DiscoverX)) EUB0000229b ADCK3.
A further experiment has as its target SRSF protein kinase 1 (Homo sapiens, UniProt Q96SB4). Nature of the experiment: Selectivity interaction (KinomeScan (DiscoverX)) EUB0000229b SRPK1. The settings on record: at 10 µM.
For experiment [6], the system named is Proto-oncogene tyrosine-protein kinase receptor Ret (Homo sapiens), P07949 [M918T]. Nature of the experiment: (§1) Selectivity interaction (KinomeScan (DiscoverX)) EUB0000655a RET. The following applies: at 10 µM.
Experiment [7] relates to Proto-oncogene tyrosine-protein kinase receptor Ret (Homo sapiens), P07949 [V804L]. The description is as §1. The settings on record: at 10 µM.
Experiment [8] deals with Proto-oncogene tyrosine-protein kinase receptor Ret (Homo sapiens), P07949 [V804M]. Described as §1. The following applies: at 10 µM.
For experiment [9], the target named is T2, Proto-oncogene tyrosine-protein kinase receptor Ret (Homo sapiens, UniProt P07949). The experiment is described as §1. The following applies: at 10 µM.
The test system of experiment [10] is Proto-oncogene tyrosine-protein kinase receptor Ret (Homo sapiens), P07949 [M918T]. Nature of the experiment: (§2) Selectivity interaction (KinomeScan (DiscoverX)) EUB0001619a RET. The following applies: at 1 µM.
Experiment [11] relates to Proto-oncogene tyrosine-protein kinase receptor Ret (Homo sapiens), P07949 [V804L]. Described as §2. The settings on record: at 1 µM.
The subject of experiment [12] is Proto-oncogene tyrosine-protein kinase receptor Ret (Homo sapiens), P07949 [V804M]. The experiment is described as §2. The settings on record: at 1 µM.
In experiment [13] the target is T2, Proto-oncogene tyrosine-protein kinase receptor Ret. Described as §2. The following applies: at 1 µM.
Experiment [14] is described as follows: Selectivity interaction (ActivX KiNativ screen (kinase selectivity in THP-1 cell lysates)) EUB0000639a STLK6. The settings on record: Selectivity number of off-targets 0; Selectivity number of targets 283; Source Knowledge https://pubmed.ncbi.nlm.nih.gov/28498658/; at 0.2 µM.
Experiment [15] addresses Cyclin-dependent kinase 13 (Homo sapiens, UniProt Q14004). Nature of the experiment: Selectivity interaction (KinomeScan (DiscoverX)) EUB0001049a CDK13. The following applies: at 1 µM.
In experiment [16] the target is Serine/threonine-protein kinase PAK 3 (Homo sapiens) (UniProt O75914). Nature of the experiment: Selectivity interaction (KinomeScan (DiscoverX)) EUB0001049a PAK3. The following applies: at 1 µM.
The nature of experiment [17]: Selectivity interaction (KinomeScan (DiscoverX)) EUB0001049a PKNB. The settings on record: at 1 µM.
Experiment [18] concerns the target RAC-gamma serine/threonine-protein kinase (Homo sapiens, UniProt Q9Y243). Nature of the experiment: Selectivity interaction (ProQinase) EUB0000171b AKT3.
Experiment [19] has as its target T3, Dual specificity protein kinase TTK (Homo sapiens) (UniProt P33981).
T3 sequence (whole entry): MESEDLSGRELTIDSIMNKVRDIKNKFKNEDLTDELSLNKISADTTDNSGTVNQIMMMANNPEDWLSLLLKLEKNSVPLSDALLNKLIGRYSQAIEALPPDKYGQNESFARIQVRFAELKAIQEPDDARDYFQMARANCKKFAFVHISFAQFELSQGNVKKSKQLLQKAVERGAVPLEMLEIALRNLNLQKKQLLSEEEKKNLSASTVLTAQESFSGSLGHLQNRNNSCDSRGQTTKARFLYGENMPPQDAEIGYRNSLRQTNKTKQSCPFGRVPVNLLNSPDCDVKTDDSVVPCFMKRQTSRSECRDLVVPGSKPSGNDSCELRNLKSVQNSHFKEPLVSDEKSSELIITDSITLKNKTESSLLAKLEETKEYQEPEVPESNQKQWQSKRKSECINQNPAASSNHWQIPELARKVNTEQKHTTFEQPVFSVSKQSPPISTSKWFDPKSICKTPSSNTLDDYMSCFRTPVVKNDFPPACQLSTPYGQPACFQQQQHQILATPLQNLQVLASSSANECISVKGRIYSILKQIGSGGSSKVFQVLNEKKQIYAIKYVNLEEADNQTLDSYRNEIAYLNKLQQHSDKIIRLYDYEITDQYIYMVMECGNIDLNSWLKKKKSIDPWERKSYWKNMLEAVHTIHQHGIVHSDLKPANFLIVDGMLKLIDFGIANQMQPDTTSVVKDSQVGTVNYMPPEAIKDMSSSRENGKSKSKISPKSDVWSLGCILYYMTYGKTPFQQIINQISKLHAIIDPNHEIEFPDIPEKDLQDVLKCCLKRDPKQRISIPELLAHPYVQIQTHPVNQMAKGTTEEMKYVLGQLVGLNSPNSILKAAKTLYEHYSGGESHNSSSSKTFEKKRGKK
Nature of the experiment: Selectivity interaction (Kinase panel (DSF assay)) EUB0001559a TTK.

Experiment [20] addresses Cyclin-dependent kinase 2 (Homo sapiens, UniProt P24941). Nature of the experiment: Selectivity interaction (KinomeScan (DiscoverX)) EUB0000045b CDK2.
The target in experiment [21] is Microtubule-associated serine/threonine-protein kinase 1 (Homo sapiens) (UniProt Q9Y2H9). Nature of the experiment: Selectivity interaction (KinomeScan (DiscoverX)) EUB0000618a MAST1. The settings on record: at 10 µM.
For experiment [22], the target named is Maternal embryonic leucine zipper kinase (Homo sapiens) (UniProt Q14680). Nature of the experiment: Selectivity interaction (KinomeScan (DiscoverX)) EUB0000595a MELK. The following applies: at 10 µM.
Chain of Maternal embryonic leucine zipper kinase (Homo sapiens) (Q14680 whole entry, looked up): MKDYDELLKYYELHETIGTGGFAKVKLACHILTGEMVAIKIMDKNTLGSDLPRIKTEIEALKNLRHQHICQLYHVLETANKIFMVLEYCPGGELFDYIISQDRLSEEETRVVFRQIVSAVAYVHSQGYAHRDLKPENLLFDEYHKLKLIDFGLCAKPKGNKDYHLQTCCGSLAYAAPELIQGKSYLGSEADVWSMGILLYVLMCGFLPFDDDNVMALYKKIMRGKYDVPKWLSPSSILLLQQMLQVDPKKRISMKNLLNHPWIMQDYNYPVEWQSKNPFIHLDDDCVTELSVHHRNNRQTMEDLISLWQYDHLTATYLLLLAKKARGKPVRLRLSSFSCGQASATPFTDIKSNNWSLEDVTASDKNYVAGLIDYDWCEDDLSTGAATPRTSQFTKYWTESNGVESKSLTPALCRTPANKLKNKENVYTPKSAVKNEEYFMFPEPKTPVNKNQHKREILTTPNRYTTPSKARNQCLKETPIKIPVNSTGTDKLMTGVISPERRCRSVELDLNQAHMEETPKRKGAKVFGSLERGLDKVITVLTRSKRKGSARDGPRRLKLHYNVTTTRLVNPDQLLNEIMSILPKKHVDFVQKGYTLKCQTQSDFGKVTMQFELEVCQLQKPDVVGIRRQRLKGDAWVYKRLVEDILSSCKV

Chain of Proto-oncogene tyrosine-protein kinase receptor Ret (Homo sapiens), P07949 [V804L] (P07949 whole entry V804L): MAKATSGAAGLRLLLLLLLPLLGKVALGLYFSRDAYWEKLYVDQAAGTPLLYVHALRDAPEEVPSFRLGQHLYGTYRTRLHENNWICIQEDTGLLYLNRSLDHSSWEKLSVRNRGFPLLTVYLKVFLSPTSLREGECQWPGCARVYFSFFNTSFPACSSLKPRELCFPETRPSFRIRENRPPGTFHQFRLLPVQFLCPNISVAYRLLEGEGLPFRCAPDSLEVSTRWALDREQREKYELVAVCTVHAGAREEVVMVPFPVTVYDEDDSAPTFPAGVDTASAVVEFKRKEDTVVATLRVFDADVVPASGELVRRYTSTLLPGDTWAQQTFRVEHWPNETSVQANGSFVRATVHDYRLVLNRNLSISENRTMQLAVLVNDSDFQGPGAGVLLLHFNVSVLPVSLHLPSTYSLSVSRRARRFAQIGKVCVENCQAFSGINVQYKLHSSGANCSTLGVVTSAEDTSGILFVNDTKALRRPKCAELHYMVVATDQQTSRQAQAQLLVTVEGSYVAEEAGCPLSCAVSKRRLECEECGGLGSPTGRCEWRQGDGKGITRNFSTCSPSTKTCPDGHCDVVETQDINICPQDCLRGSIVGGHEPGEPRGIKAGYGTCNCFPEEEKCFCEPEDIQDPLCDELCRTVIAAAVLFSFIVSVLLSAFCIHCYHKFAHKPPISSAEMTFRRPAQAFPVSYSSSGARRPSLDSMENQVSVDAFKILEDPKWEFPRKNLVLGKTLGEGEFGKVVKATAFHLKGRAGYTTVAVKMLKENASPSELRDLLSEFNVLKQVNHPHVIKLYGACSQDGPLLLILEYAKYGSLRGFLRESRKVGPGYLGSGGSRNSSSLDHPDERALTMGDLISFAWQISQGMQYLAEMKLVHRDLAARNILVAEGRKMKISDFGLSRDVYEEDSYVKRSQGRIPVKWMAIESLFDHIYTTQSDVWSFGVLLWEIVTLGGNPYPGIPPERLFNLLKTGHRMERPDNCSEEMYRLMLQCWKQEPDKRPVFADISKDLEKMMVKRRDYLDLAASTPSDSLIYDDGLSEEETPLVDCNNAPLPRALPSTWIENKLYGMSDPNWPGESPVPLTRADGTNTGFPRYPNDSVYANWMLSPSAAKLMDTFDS
T2 sequence (P07949 whole entry): as the sequence (P07949 whole entry V804L) above, with L804V counted along it
Chain of Proto-oncogene tyrosine-protein kinase receptor Ret (Homo sapiens), P07949 [M918T] (P07949 whole entry M918T): as the sequence (P07949 whole entry V804L) above, with L804V, M918T counted along it
Chain of RAC-gamma serine/threonine-protein kinase (Q9Y243 whole entry): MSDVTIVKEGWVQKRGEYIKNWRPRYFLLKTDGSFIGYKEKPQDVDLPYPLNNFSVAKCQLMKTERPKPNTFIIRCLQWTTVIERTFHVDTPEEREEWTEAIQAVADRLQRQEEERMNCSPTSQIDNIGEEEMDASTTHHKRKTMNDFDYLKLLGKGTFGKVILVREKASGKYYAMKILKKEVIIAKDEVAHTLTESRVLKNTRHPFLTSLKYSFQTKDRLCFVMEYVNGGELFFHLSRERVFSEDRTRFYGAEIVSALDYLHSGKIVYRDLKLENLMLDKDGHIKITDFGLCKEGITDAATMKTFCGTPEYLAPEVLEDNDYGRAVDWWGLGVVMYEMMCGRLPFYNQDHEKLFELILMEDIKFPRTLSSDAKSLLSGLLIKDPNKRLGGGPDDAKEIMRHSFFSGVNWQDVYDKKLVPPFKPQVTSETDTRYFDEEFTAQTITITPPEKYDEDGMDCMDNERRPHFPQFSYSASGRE
Chain of Proto-oncogene tyrosine-protein kinase receptor Ret (Homo sapiens), P07949 [V804M] (P07949 whole entry V804M): as the sequence (P07949 whole entry V804L) above, with L804M counted along it
Chain of SRSF protein kinase 1 (Q96SB4 whole entry): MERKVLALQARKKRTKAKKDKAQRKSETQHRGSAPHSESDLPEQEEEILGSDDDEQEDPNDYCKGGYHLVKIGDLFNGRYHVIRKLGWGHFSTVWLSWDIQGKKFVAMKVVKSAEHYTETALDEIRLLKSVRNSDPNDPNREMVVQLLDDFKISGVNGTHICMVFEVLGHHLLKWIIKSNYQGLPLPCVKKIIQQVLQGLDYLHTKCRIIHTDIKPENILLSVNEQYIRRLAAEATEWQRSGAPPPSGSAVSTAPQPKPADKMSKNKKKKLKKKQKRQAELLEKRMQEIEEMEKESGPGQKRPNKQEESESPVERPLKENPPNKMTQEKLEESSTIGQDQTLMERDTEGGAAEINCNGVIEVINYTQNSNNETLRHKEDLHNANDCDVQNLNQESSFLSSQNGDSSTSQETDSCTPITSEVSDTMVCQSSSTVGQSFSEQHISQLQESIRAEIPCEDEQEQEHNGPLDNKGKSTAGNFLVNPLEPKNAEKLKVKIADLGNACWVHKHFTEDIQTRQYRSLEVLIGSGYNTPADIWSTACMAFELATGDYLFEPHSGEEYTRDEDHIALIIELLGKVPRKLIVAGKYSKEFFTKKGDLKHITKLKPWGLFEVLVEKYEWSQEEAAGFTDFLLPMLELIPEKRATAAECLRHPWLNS
Chain of Mitogen-activated protein kinase kinase kinase kinase 4 (O95819 2-1239 limits assumed): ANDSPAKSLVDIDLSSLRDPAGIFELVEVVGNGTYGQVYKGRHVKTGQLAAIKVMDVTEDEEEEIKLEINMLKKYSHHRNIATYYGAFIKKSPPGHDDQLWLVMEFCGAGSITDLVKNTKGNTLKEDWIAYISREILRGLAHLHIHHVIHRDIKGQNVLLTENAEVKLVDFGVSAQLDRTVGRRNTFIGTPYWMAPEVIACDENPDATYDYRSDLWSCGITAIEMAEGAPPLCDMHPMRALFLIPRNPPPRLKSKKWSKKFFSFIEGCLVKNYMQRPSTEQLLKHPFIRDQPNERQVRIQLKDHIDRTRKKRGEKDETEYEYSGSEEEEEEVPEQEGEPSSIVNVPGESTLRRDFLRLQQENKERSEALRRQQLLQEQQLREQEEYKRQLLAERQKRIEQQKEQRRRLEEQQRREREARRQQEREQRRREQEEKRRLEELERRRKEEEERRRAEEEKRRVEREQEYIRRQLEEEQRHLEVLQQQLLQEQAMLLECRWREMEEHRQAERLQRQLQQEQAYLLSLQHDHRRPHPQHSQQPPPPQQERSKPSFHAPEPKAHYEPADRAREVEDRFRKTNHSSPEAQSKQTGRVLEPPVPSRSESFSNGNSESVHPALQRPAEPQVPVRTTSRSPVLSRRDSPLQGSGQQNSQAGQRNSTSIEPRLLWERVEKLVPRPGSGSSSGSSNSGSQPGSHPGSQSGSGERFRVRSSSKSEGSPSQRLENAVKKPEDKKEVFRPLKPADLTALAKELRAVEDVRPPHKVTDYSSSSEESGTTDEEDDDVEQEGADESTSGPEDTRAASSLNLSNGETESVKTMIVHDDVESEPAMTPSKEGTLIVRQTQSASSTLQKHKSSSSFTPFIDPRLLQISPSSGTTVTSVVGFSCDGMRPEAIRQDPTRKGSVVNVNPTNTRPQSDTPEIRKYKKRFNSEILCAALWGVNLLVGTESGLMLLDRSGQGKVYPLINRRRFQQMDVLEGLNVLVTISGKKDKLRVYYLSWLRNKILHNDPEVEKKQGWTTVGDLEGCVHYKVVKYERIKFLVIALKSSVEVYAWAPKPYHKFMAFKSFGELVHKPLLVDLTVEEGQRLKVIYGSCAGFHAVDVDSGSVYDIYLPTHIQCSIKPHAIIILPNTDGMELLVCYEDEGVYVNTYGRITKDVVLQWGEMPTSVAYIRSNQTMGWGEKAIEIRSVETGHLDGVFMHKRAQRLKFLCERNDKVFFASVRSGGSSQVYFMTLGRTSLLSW
Chain of Atypical kinase COQ8A, mitochondrial (Q8NI60 whole entry): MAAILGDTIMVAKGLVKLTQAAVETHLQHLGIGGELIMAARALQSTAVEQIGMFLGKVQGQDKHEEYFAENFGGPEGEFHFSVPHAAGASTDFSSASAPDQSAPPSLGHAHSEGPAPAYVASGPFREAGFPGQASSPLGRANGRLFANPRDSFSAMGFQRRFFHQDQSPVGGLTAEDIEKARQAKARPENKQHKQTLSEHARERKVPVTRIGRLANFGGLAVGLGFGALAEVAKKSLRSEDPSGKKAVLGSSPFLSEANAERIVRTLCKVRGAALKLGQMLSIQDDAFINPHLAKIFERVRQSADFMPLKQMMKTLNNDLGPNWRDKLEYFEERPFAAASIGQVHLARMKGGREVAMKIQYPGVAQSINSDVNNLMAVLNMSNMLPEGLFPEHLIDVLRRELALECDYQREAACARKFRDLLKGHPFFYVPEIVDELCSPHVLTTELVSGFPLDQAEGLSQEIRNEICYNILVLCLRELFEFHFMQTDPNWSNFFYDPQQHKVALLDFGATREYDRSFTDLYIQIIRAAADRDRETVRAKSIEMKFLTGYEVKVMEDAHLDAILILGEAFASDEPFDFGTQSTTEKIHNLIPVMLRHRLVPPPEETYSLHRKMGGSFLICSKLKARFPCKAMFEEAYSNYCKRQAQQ

With `CN(C)C/C=C/C(=O)Nc1ccc(C(=O)N2CCCC(Nc3ncc(Cl)c(-c4c[nH]c5ccccc45)n3)C2)cc1` (stereo not given), the % of control in experiment [1] turned out to be 93%.

Turning to `Cc1cc([C@@H](C)Nc2ccccc2C(=O)O)c2nc(N3CCOCC3)cc(=O)n2c1` [AZD-6482], the % of control came to 100% in experiment [2] and 97% in [3].

As to `O=C(NOC[C@H](O)CO)c1ccc(F)c(F)c1Nc1ccc(I)cc1F`, the % of control in experiment [4] was found to be 100%.

As for `COc1cc(N(C)c2ccnc3ccc(C(F)(F)F)cc23)cc(OC)c1OC`, the Kd in experiment [5] was over 10 µM. The % binding at SRSF protein kinase 1 came to 92%.

`CN(C)CCOc1ccc(-c2nc(-c3ccncc3)c(-c3ccc4c(c3)CC/C4=N\O)[nH]2)cc1`: the % of control in experiment [6] is 88%; in [7], 100%; in experiment [8], 92%; in [9], 100%.

`N#Cc1cccc(-c2c[nH]c3ncnc(N4CCOCC4)c23)c1`: the % of control amounted to 70% in experiment [10], 95% in [11], 58% in experiment [12] and 78% in experiment [13].

`CC[C@@H]1[C@H](F)C(=O)N[C@@H]1COc1nccc2cc(C(N)=O)c(OC)cc12` [ZIMLOVISERTIB]: the “% of inhibition” value in experiment [14] is 7.4%.

Turning to `COc1cc(Nc2nc(C)cc(-c3cnn4nc(OC)ccc34)n2)cc(C(F)(F)F)c1`, the % of control in experiment [15] was found to be 100%; in [16] it was 85%; in experiment [17] it was 71%.

On to `C=CC(=O)Nc1cccc(C(=O)Nc2ccc(Nc3cc(-c4[nH]c(SC)nc4C)ccn3)cc2)c1`, for which the % of control in experiment [18] (at 1 µM) is 95%; in experiment [18] (at 5 µM), 90%.

In experiment [19], `CN(C(=O)c1cnn2cccnc12)c1cc2c(cc1N1CCOCC1)C(=O)N(C[C@@H](F)C(C)(C)O)C2` gave a dTM of -0.3 K.

With `C=CC(=O)Nc1cc(-n2c(=O)ccc3cnc4ccc(-c5ccc(NS(C)(=O)=O)cc5)cc4c32)ccc1C`, the % of control in experiment [20] (at 1 µM) was 95%; in experiment [20] (at 10 µM) it was 100%.

As for `O[C@H]1CC[C@H](Nc2ncc3nc(Nc4c(F)cc(F)cc4F)n([C@H]4CCOC4)c3n2)CC1`, in experiment [21], the % of control amounted to 75%.

The compound `COCC(=O)NC/C=C/c1ccc2ncnc(Nc3ccc(Oc4ccc(C)nc4)c(C)c3)c2c1` [CP-724714] registered a % of control in [22] of 92%.
